The text below walks through data of patent publication US20250034159A1, “INHIBITORS OF EPIDERMAL GROWTH FACTOR RECEPTOR” (ORIC Pharmaceuticals, Inc., priority 2021, published 2025).

The structures appear in SMILES notation. Read-outs that look alike come from different tables or passages of the source.

The test system of one test is BaF3_EGFR LR/CS cells. Put plainly: Biological Activity Assay D: BaF3 cell proliferation assay, EGFR L858R/C797S mutant (BaF3 LR/CS). The format is cell-based. The settings on record: Ba/F3 EGFR, read-out: BaF3 LR/CS IC50.
In test [1] the target is recombinant human EGFR L858R/C797S double mutant protein (Homo sapiens (Human), UniProt P00533, C797S/L858R). Description: Biological Activity Assay B: biochemical assay against EGFR L858R/C797S protein (EGFR LR/CS). In short, it runs like this: (§1)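 Compounds were tested as 16-point serial dilutions (final DMSO 2.5%) with a Phosphosens peptide sensor/ATP working solution (40 uM/4 mM). The signal was read kinetically over 90 cycles at 120 s intervals. IC50s came from 4-parameter fits of per-well slopes.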
recombinant human EGFR L858R/C797S double mutant protein, sequence (P00533 25-1210 C797S/L858R): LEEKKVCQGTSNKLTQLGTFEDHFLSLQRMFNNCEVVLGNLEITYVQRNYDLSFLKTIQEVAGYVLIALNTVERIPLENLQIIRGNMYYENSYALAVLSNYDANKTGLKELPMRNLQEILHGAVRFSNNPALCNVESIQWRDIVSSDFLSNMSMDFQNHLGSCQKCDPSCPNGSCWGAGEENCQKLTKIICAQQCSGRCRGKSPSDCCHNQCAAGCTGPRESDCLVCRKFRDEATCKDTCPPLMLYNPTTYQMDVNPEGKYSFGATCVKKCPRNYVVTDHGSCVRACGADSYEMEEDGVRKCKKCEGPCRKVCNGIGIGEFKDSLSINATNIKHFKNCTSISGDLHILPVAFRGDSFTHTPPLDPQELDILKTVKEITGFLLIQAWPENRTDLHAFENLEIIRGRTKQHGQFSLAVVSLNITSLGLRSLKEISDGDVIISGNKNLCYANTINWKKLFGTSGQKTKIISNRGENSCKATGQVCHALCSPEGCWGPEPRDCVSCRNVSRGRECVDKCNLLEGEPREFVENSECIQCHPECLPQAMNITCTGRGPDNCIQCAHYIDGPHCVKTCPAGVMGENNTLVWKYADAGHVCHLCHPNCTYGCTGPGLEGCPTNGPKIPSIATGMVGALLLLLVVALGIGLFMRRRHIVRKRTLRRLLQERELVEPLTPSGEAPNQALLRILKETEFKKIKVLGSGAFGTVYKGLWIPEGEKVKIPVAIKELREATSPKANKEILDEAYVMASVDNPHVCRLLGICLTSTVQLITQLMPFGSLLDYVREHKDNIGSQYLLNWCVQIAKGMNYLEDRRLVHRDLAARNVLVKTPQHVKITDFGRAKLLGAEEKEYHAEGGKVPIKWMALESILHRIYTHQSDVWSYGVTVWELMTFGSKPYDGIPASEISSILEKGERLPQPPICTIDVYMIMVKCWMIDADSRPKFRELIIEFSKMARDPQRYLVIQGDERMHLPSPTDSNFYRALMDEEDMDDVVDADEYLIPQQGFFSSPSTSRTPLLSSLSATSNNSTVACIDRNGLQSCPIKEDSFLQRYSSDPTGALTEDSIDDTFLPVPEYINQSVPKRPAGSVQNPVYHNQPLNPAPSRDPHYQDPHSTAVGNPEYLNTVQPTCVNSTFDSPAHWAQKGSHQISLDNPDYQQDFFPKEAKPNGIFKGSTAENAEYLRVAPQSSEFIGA

A further test concerns BaF3_EGFR d19/CS cells. Put plainly: Biological Activity Assay D: BaF3 cell proliferation assay, EGFR exon 19 deletion/C797S (BaF3 d19/CS). Format: cell-based. The conditions noted are these: Ba/F3 EGFR, read-out: BaF3 d19/CS IC50.
The subject of the next test is Ba/F3_EGFR WT cells. Description: Biological Activity Assay D: BaF3 cell proliferation assay, EGFR wild-type (BaF3 WT). Format: cell-based. The settings on record: Ba/F3 EGFR, read-out: BaF3 WT IC50.
Test [2] deals with recombinant human EGFR exon 19 deletion/C797S double mutant protein (Homo sapiens (Human), UniProt P00533, C797S/DEL746-750). Put plainly: Biological Activity Assay C: biochemical assay against EGFR exon 19 deletion/C797S protein (EGFR d19/CS). In short, it runs like this: as §1
recombinant human EGFR exon 19 deletion/C797S double mutant protein, sequence (P00533 other isoform, or with tags, fused parts or gaps C797S/del 1-668/del 746-750 limits assumed): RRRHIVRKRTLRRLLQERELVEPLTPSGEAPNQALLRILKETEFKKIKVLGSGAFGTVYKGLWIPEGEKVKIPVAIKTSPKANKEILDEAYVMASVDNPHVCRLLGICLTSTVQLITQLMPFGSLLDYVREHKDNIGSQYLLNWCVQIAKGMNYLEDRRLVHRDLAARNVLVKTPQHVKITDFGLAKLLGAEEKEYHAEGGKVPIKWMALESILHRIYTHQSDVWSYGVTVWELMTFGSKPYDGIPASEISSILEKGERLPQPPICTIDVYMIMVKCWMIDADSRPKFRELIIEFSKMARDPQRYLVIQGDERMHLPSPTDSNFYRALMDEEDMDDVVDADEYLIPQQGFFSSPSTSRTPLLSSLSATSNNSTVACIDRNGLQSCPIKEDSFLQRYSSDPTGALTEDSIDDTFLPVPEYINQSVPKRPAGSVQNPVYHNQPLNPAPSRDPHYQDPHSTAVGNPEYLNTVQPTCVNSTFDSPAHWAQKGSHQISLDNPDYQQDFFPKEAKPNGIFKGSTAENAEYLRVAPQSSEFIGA
Setting [3] is: BaF3_EGFR LR/CS cells, ~72 hours, CellTiter-Glo.
Setting [4] is: BaF3_EGFR d19/CS cells, ~72 hours, CellTiter-Glo.
Where [5] appears, read: Ba/F3_EGFR WT cells, ~72 hours, CellTiter-Glo.

Turning to `N#CCCCn1cc(-c2ncnc3oc(-c4ccccc4)cc23)c(-c2ccc(F)cc2)n1` [Example 116, 4-[3-(4-Fluorophenyl)-4-(6-phenylfuro[2,3-d]pyrimidin-4-yl)-1H-pyrazol-1-yl]butanenitrile], the IC50 with BaF3_EGFR LR/CS cells (72 h) turned out to be 22.9 nM; in test [1], 0.37 nM; in the test with BaF3_EGFR d19/CS cells (72 h), 47.6 nM; in the test with Ba/F3_EGFR WT cells (72 h), 1510 nM; in test [2], 0.23 nM.
For `O=S1(=O)CCCC(n2cc(-c3ncnc4oc(-c5ccccc5)cc34)c(-c3ccc(F)cc3)n2)C1` (stereo not drawn) [Example 84, 3-[3-(4-fluorophenyl)-4-(6-phenylfuro[2,3-d]pyrimidin-4-yl)-1H-pyrazol-1-yl]-1λ6-thiane-1,1-dione], the IC50 with BaF3_EGFR LR/CS cells (setting [3]) is 566 nM; in test [1], 6.21 nM; in the test on BaF3_EGFR d19/CS cells (setting [4]) it was 779 nM; in the test with Ba/F3_EGFR WT cells (setting [5]), more than 20000 nM; in test [2], 10.8 nM.
The like results for `Fc1ccc(-c2nn(C3CCOC3)cc2-c2ncnc3oc(-c4ccccc4)cc23)cc1` (racemic) [Example 85, 4-[3-(4-Fluorophenyl)-1-(oxolan-3-yl)-1H-pyrazol-4-yl]-6-phenylfuro[2,3-d]pyrimidine] were, in that order, 27.5 nM, 0.58 nM, 33.8 nM, 1860 nM and 0.39 nM.
As for `CC(C)(O)Cn1nc(-c2ccc(F)cc2)c(-c2ncnc3oc(-c4ccccc4)cc23)n1` [Example 88, 1-[4-(4-fluorophenyl)-5-(6-phenylfuro[2,3-d]pyrimidin-4-yl)-2H-1,2,3-triazol-2-yl]-2-methylpropan-2-ol], the IC50 in the test on BaF3_EGFR LR/CS cells (setting [3]) is 301 nM; in test [1], 1.22 nM; with BaF3_EGFR d19/CS cells (setting [4]), 238 nM; with Ba/F3_EGFR WT cells (setting [5]) it was 3740 nM; in test [2] it was 0.64 nM.
Take `CC(O)Cn1cc(-c2ncnc3oc(-c4ccccc4)cc23)c(-c2ccc(F)cc2)n1` (stereo not drawn) [Example 58, 1-[3-(4-Fluorophenyl)-4-(6-phenylfuro[2,3-d]pyrimidin-4-yl)-1H-pyrazol-1-yl]propan-2-ol]: the IC50 with BaF3_EGFR LR/CS cells (72 h) is 58.2 nM; in test [1], 0.349 nM; in the test on BaF3_EGFR d19/CS cells (72 h), 43.7 nM; in the test with Ba/F3_EGFR WT cells (72 h) it was 2100 nM; in test [2], 0.177 nM.
As to `OCCCc1nc(-c2ccc(F)cc2)n(-c2ccnc3[nH]c(-c4ccccc4)cc23)n1` [Example 3, 3-[5-(4-Fluorophenyl)-1-(2-phenyl-1H-pyrrolo[2,3-b]pyridin-4-yl)-1H-1,2,4-triazol-3-yl]propan-1-ol], the IC50 is 130 nM in the test on BaF3_EGFR LR/CS cells (setting [3]); 3.15 nM in test [1]; 169 nM with BaF3_EGFR d19/CS cells (setting [4]); 808 nM with Ba/F3_EGFR WT cells (setting [5]); 1.66 nM in test [2].
Regarding `O=S1(=O)CC[C@H](Cn2cc(-c3ncnc4oc(-c5ccccc5)cc34)c(-c3ccc(F)cc3)n2)C1` (single isomer, unassigned) [Example 96], the IC50 came out at 73.8 nM in the test with BaF3_EGFR LR/CS cells (setting [3]); 0.39 nM in test [1]; 150 nM in the test with BaF3_EGFR d19/CS cells (setting [4]); 1480 nM in the test with Ba/F3_EGFR WT cells (setting [5]); 0.62 nM in test [2].
Turning to `NS(=O)(=O)CCn1cc(-c2ncnc3oc(-c4ccccc4)cc23)c(-c2ccc(F)cc2)n1` [Example 111, 2-[3-(4-Fluorophenyl)-4-(6-phenylfuro[2,3-d]pyrimidin-4-yl)-1H-pyrazol-1-yl]ethane-1-sulfonamide], the IC50 in the test on BaF3_EGFR LR/CS cells (setting [3]) came to 53.7 nM; in test [1] it was 0.45 nM; in the test with BaF3_EGFR d19/CS cells (setting [4]), 114 nM; in the test on Ba/F3_EGFR WT cells (setting [5]), 1140 nM; in test [2], 0.41 nM.
The like results for `OCC(F)(F)Cn1cc(-c2ncnc3oc(-c4ccccc4)cc23)c(-c2ccc(F)cc2)n1` [Example 78, 2,2-Difluoro-3-[3-(4-fluorophenyl)-4-(6-phenylfuro[2,3-d]pyrimidin-4-yl)-1H-pyrazol-1-yl]propan-1-ol] were, in that order, 23.2 nM, 0.48 nM, 18.4 nM, 2730 nM and 0.37 nM.
For `OCCn1nc(-c2ccc(F)cc2)c(-c2ncnc3[nH]c(-c4ccccc4)nc23)n1` [Example 27, 2-[4-(4-Fluorophenyl)-5-(8-phenyl-9H-purin-6-yl)-2H-1,2,3-triazol-2-yl]ethan-1-ol], in that order: 208 nM, 8.65 nM, 464 nM, 11700 nM and 3.12 nM.
For `OCCCn1cc(-c2ncnc3[nH]c(-c4ccccc4)nc23)c(-c2ccc(F)cc2)n1` [Example 6, 3-[3-(4-Fluorophenyl)-4-(8-phenyl-9H-purin-6-yl)-1H-pyrazol-1-yl]propan-1-ol], in that order: 4.4 nM, 0.253 nM, 5.81 nM, 1100 nM and 0.148 nM.
On to `OCCCc1cc(-c2ccnc3[nH]c(-c4ccccc4)cc23)n(-c2ccc(F)cc2)n1` [Example 12, 3-[1-(4-fluorophenyl)-5-{2-phenyl-1H-pyrrolo[2,3-b]pyridin-4-yl}pyrazol-3-yl]propan-1-ol], for which the IC50 in the test on BaF3_EGFR LR/CS cells (setting [3]) worked out at 25.3 nM; in test [1], 1.08 nM; with BaF3_EGFR d19/CS cells (setting [4]) it was 21.4 nM; in the test with Ba/F3_EGFR WT cells (setting [5]) it was 483 nM; in test [2], 0.732 nM.
On to `NS(=O)(=O)CCCn1cc(-c2ncnc3oc(-c4ccccc4)cc23)c(-c2ccc(F)cc2)n1` [Example 65, 3-[3-(4-Fluorophenyl)-4-(6-phenylfuro[2,3-d]pyrimidin-4-yl)-1H-pyrazol-1-yl]propane-1-sulfonamide], for which the IC50 is 24.3 nM in the test with BaF3_EGFR LR/CS cells (setting [3]); 0.263 nM in test [1]; 19.9 nM with BaF3_EGFR d19/CS cells (setting [4]); 589 nM with Ba/F3_EGFR WT cells (setting [5]); 0.341 nM in test [2].
With `CC(C)(O)CCn1cc(-c2ncnc3oc(-c4ccccc4)cc23)c(-c2ccc(F)cc2)n1` [Example 34, 4-[3-(4-fluorophenyl)-4-(6-phenylfuro[2,3-d]pyrimidin-4-yl)-1H-pyrazol-1-yl]-2-methylbutan-2-ol], the IC50 in the test with BaF3_EGFR LR/CS cells (setting [3]) is 225 nM; in test [1], 1.17 nM; in the test on BaF3_EGFR d19/CS cells (setting [4]), 122 nM; in the test on Ba/F3_EGFR WT cells (setting [5]), 7780 nM; in test [2], 1.59 nM.
Regarding `OCCCn1cc(-c2ncnc3oc(-c4ccccc4)nc23)c(-c2ccc(F)cc2)n1` [Example 5, 3-[3-(4-Fluorophenyl)-4-(2-phenyl[1,3]oxazolo[5,4-d]pyrimidin-7-yl)-1H-pyrazol-1-yl]propan-1-ol], the IC50 was determined as 80.3 nM in the test on BaF3_EGFR LR/CS cells (setting [3]); 1.2 nM in test [1]; 90.6 nM in the test on BaF3_EGFR d19/CS cells (setting [4]); 2430 nM with Ba/F3_EGFR WT cells (setting [5]); 0.45 nM in test [2].
As to `COC1(CCn2cc(-c3ncnc4oc(-c5ccccc5)cc34)c(-c3ccc(F)cc3)n2)COC1` [Example 113, 4-{3-(4-fluorophenyl)-1-[2-(3-methoxyoxetan-3-yl)ethyl]-1H-pyrazol-4-yl}-6-phenylfuro[2,3-d]pyrimidine], the IC50 was determined as 256 nM in the test with BaF3_EGFR LR/CS cells (setting [3]); 1.27 nM in test [1]; 315 nM in the test on BaF3_EGFR d19/CS cells (setting [4]); 2190 nM with Ba/F3_EGFR WT cells (setting [5]); 1.49 nM in test [2].
For `O=S1(=O)CCC(n2cc(-c3ncnc4oc(-c5ccccc5)cc34)c(-c3ccc(F)cc3)n2)C1` (stereo not drawn) [Example 41, 3-[3-(4-fluorophenyl)-4-(6-phenylfuro[2,3-d]pyrimidin-4-yl)-1H-pyrazol-1-yl]-1λ6-thiolane-1,1-dione], in that order: 61.6 nM, 0.518 nM, 34.7 nM, 2390 nM and 0.375 nM.
For `Fc1ccc(-c2nn(CC(F)F)cc2-c2ncnc3oc(-c4ccccc4)cc23)cc1` [Example 119, 4-[1-(2,2-Difluoroethyl)-3-(4-fluorophenyl)-1H-pyrazol-4-yl]-6-phenylfuro[2,3-d]pyrimidine], in that order: 35.5 nM, 0.7 nM, 50.9 nM, 1340 nM and 0.34 nM.
The like results for `O=S1(=O)CCC[C@@H](n2cc(-c3ncnc4oc(-c5ccccc5)cc34)c(-c3ccc(F)cc3)n2)C1` (single isomer, unassigned) [Example 99] were, in that order, 822 nM, 5.7 nM, 701 nM, more than 20000 nM and 8.51 nM.
Turning to `CC(C)(O)CCc1nc(-c2ccc(F)cc2)c(-c2ncnc3oc(-c4ccccc4)cc23)o1` [Example 44, 4-[4-(4-fluorophenyl)-5-(6-phenylfuro[2,3-d]pyrimidin-4-yl)-1,3-oxazol-2-yl]-2-methylbutan-2-ol], the IC50 with BaF3_EGFR LR/CS cells (setting [3]) amounted to 263 nM; in test [1], 2.76 nM; in the test with BaF3_EGFR d19/CS cells (setting [4]), 421 nM; with Ba/F3_EGFR WT cells (setting [5]) it was 6650 nM; in test [2] it was 1.79 nM.
`OCCCn1cc(-c2ccnc3[nH]c(-c4nnco4)cc23)c(-c2ccc(F)cc2)n1` [Example 17, 3-{3-(4-Fluorophenyl)-4-[2-(1,3,4-oxadiazol-2-yl)-1H-pyrrolo[2,3-b]pyridin-4-yl]-1H-pyrazol-1-yl}propan-1-ol]: the IC50 with BaF3_EGFR LR/CS cells (setting [3]) stood at 153 nM; in test [1], 8.44 nM; in the test on BaF3_EGFR d19/CS cells (setting [4]) it was 157 nM; in the test with Ba/F3_EGFR WT cells (setting [5]), 1740 nM; in test [2] it was 3.46 nM.
